From patent US10960002B2, “Volatile metabolite profiles for the diagnosis and treatment of Mucorales fungi” (The Brigham and Women's Hospital, Inc., priority 2016, dated 2021)

Test system: Rhizopus microsporus
Test: Sequential GC-MS analysis of breath samples from a patient with proven Rhizopus microsporus infection during antifungal therapy
Type: in vivo, human
Settings: one patient with proven Rhizopus microsporus infection; from day 0 (start of therapy) over the 28-day treatment course

C[C@@H](c1nc(-c2ccc(C#N)cc2)cs1)[C@](O)(Cn1cncn1)c1cc(F)ccc1F [isavuconazole]
breath levels of three sesquiterpene metabolites (1H-Indene, 2,3,3a,4-tetrahydro-3,3a,6-trimethyl-1-(1-methylethyl)-; cedrene; cedranoxide, 8,14-): gradual attenuation and disappearance
